Test results reported in US12077503B2, “Substituted cyclic amides and their use as herbicides” (FMC CORPORATION, priority 2015, dated 2024).

Tests used:
Assay type in all cases: in vivo
[1] = tested on: ivy-leaved morning glory (Ipomoea hederacea); test: Test G Post-Emergence Protocol; conditions: Ipomoea, post-emergence, 312 h; for pest or weed control at 15.625 g/ha: 15.625 g ai/ha, evaluated after 13 days (100=total damage to plant; 0=no damage to plant), read-out: Morningglory, Ivy-leaved damage rating; for pest or weed control at 62.5 g/ha: 62.5 g ai/ha, read-out: Morningglory, Ivy-leaved damage rating (100=total damage to plant; 0=no damage to plant); for pest or weed control at 62.5 g/ha / pest or weed control at 250 g/ha: evaluated after 13 days; for pest or weed control at 250 g/ha: 250 g ai/ha, read-out: damage to plant, Morningglory, Ivy-leaved (100=total damage to plant; 0=no damage to plant)
Summary of the method: (§1)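 A glasshouse post-emergence test: 8-day-old plants sprayed at 15.625, 62.5 or 250 g/ha, then grown at 24/16 °C day/night with 14 h light and 65% humidity. Damage rated 13 days later, 0–100.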

[2] = tested on: barnyardgrass (Echinochloa crus-galli); test: Test G Post-Emergence Protocol; conditions: Echinochloa crus-galli, post-emergence, 312 h; for pest or weed control at 15.625 g/ha: 15.625 g ai/ha, evaluated after 13 days (100=total damage to plant; 0=no damage to plant), read-out: Barnyardgrass damage rating; for pest or weed control at 62.5 g/ha: 62.5 g ai/ha, read-out: Barnyardgrass damage rating (100=total damage to plant; 0=no damage to plant); for pest or weed control at 62.5 g/ha / pest or weed control at 250 g/ha: evaluated after 13 days; for pest or weed control at 250 g/ha: 250 g ai/ha, read-out: damage to plant, Barnyardgrass (100=total damage to plant; 0=no damage to plant)
Summary of the method: as §1

[3] = tested on: velvetleaf (Abutilon theophrasti); test: Test G Post-Emergence Protocol; conditions: Abutilon theophrasti, post-emergence, 312 h; for pest or weed control at 15.625 g/ha: 15.625 g ai/ha, evaluated after 13 days (100=total damage to plant; 0=no damage to plant), read-out: Velvetleaf damage rating; for pest or weed control at 62.5 g/ha: 62.5 g ai/ha, read-out: Velvetleaf damage rating (100=total damage to plant; 0=no damage to plant); for pest or weed control at 62.5 g/ha / pest or weed control at 250 g/ha: evaluated after 13 days; for pest or weed control at 250 g/ha: 250 g ai/ha, read-out: damage to plant, Velvetleaf (100=total damage to plant; 0=no damage to plant)
Summary of the method: as §1

[4] = tested on: redroot pigweed (Amaranthus retroflexus); test: Test G Post-Emergence Protocol; conditions: Amaranthus retroflexus, post-emergence, 312 h; for pest or weed control at 15.625 g/ha: 15.625 g ai/ha, evaluated after 13 days (100=total damage to plant; 0=no damage to plant), read-out: Pigweed, Redroot damage rating; for pest or weed control at 62.5 g/ha: 62.5 g ai/ha, read-out: Pigweed, Redroot damage rating (100=total damage to plant; 0=no damage to plant); for pest or weed control at 62.5 g/ha / pest or weed control at 250 g/ha: evaluated after 13 days; for pest or weed control at 250 g/ha: 250 g ai/ha, read-out: damage to plant, Pigweed, Redroot (100=total damage to plant; 0=no damage to plant)
Summary of the method: as §1

[5] = tested on: giant foxtail (Setaria faberi); test: Test G Post-Emergence Protocol; conditions: Setaria faberi, post-emergence, 312 h; for pest or weed control at 15.625 g/ha: 15.625 g ai/ha, evaluated after 13 days (100=total damage to plant; 0=no damage to plant), read-out: Foxtail, Giant damage rating; for pest or weed control at 62.5 g/ha: 62.5 g ai/ha, read-out: Foxtail, Giant damage rating (100=total damage to plant; 0=no damage to plant); for pest or weed control at 62.5 g/ha / pest or weed control at 250 g/ha: evaluated after 13 days; for pest or weed control at 250 g/ha: 250 g ai/ha, read-out: damage to plant, Foxtail, Giant (100=total damage to plant; 0=no damage to plant)
Summary of the method: as §1

[6] = tested on: corn (Zea mays); test: Test G Post-Emergence Protocol; conditions: Zea mays, post-emergence, 312 h; for plant injury at 15.625 g/ha: 15.625 g ai/ha, evaluated after 13 days (100=total damage to plant; 0=no damage to plant), read-out: Corn damage rating; for plant injury at 62.5 g/ha: 62.5 g ai/ha, read-out: Corn damage rating (100=total damage to plant; 0=no damage to plant); for plant injury at 62.5 g/ha / plant injury at 250 g/ha: evaluated after 13 days; for plant injury at 250 g/ha: 250 g ai/ha, read-out: damage to plant, Corn (100=total damage to plant; 0=no damage to plant)
Summary of the method: as §1

[7] = tested on: ivy-leaved morning glory (Ipomoea hederacea); test: Test G Pre-Emergence Protocol; conditions: Ipomoea, pre-emergence, 312 h, evaluated after 13 days; for pest or weed control at 15.625 g/ha: 15.625 g ai/ha, read-out: Morning-glory, Ivy-leaved damage rating (100=total damage to plant; 0=no damage to plant); for pest or weed control at 62.5 g/ha: 62.5 g ai/ha, 100=total damage to plant, 0=no damage to plant, read-out: plant damage rating, Morningglory, Ivy-leaved; for pest or weed control at 250 g/ha: 250 g ai/ha, read-out: Morningglory, Ivy-leaved damage rating (100=total damage to plant; 0=no damage to plant)
Summary of the method: (§2)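 Test compound in 0.5% Tween 20 acetone/water (50:50) was applied at three rates (15.625, 62.5, 250 g/ha) to soil sown one day earlier. After 13 days plants were scored for injury, where 0 means unaffected and 100 means completely damaged.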

[8] = tested on: barnyardgrass (Echinochloa crus-galli); test: Test G Pre-Emergence Protocol; conditions: Echinochloa crus-galli, pre-emergence, 312 h, evaluated after 13 days; for pest or weed control at 15.625 g/ha: 15.625 g ai/ha, read-out: Barnyard grass damage rating (100=total damage to plant; 0=no damage to plant); for pest or weed control at 62.5 g/ha: 62.5 g ai/ha, 100=total damage to plant, 0=no damage to plant, read-out: plant damage rating, Barnyardgrass; for pest or weed control at 250 g/ha: 250 g ai/ha, read-out: Barnyardgrass damage rating (100=total damage to plant; 0=no damage to plant)
Summary of the method: as §2

[9] = tested on: velvetleaf (Abutilon theophrasti); test: Test G Pre-Emergence Protocol; conditions: Abutilon theophrasti, pre-emergence, 312 h, evaluated after 13 days; for pest or weed control at 15.625 g/ha: 15.625 g ai/ha; for pest or weed control at 15.625 g/ha / pest or weed control at 250 g/ha: read-out: Velvetleaf damage rating (100=total damage to plant; 0=no damage to plant); for pest or weed control at 62.5 g/ha: 62.5 g ai/ha, 100=total damage to plant, 0=no damage to plant, read-out: plant damage rating, Velvetleaf; for pest or weed control at 250 g/ha: 250 g ai/ha
Summary of the method: as §2

[10] = tested on: redroot pigweed (Amaranthus retroflexus); test: Test G Pre-Emergence Protocol; conditions: Amaranthus retroflexus, pre-emergence, 312 h, evaluated after 13 days; for pest or weed control at 15.625 g/ha: 15.625 g ai/ha; for pest or weed control at 15.625 g/ha / pest or weed control at 250 g/ha: read-out: Pigweed, Redroot damage rating (100=total damage to plant; 0=no damage to plant); for pest or weed control at 62.5 g/ha: 62.5 g ai/ha, 100=total damage to plant, 0=no damage to plant, read-out: plant damage rating, Pigweed, Redroot; for pest or weed control at 250 g/ha: 250 g ai/ha
Summary of the method: as §2

[11] = tested on: giant foxtail (Setaria faberi); test: Test G Pre-Emergence Protocol; conditions: Setaria faberi, pre-emergence, 312 h, evaluated after 13 days; for pest or weed control at 15.625 g/ha: 15.625 g ai/ha; for pest or weed control at 15.625 g/ha / pest or weed control at 250 g/ha: read-out: Foxtail, Giant damage rating (100=total damage to plant; 0=no damage to plant); for pest or weed control at 62.5 g/ha: 62.5 g ai/ha, 100=total damage to plant, 0=no damage to plant, read-out: plant damage rating, Foxtail, Giant; for pest or weed control at 250 g/ha: 250 g ai/ha
Summary of the method: as §2

[12] = tested on: corn (Zea mays); test: Test G Pre-Emergence Protocol; conditions: Zea mays, pre-emergence, 312 h, evaluated after 13 days; for plant injury at 15.625 g/ha: 15.625 g ai/ha; for plant injury at 15.625 g/ha / plant injury at 250 g/ha: read-out: Corn damage rating (100=total damage to plant; 0=no damage to plant); for plant injury at 62.5 g/ha: 62.5 g ai/ha, 100=total damage to plant, 0=no damage to plant, read-out: plant damage rating, Corn; for plant injury at 250 g/ha: 250 g ai/ha
Summary of the method: as §2

Row | SMILES | pest or weed control at 15.625 g/ha [1] | pest or weed control at 62.5 g/ha [1] | pest or weed control at 250 g/ha [1] | pest or weed control at 15.625 g/ha [2] | pest or weed control at 62.5 g/ha [2] | pest or weed control at 250 g/ha [2] | pest or weed control at 15.625 g/ha [3] | pest or weed control at 62.5 g/ha [3] | pest or weed control at 250 g/ha [3] | pest or weed control at 15.625 g/ha [4] | pest or weed control at 62.5 g/ha [4] | pest or weed control at 250 g/ha [4] | pest or weed control at 15.625 g/ha [5] | pest or weed control at 62.5 g/ha [5] | pest or weed control at 250 g/ha [5] | plant injury at 15.625 g/ha [6] | plant injury at 62.5 g/ha [6] | plant injury at 250 g/ha [6] | pest or weed control at 15.625 g/ha [7] | pest or weed control at 62.5 g/ha [7] | further results
1 | COc1cc(NC(=O)[C@@H]2C(=O)N(C)C[C@H]2c2ccc(C(F)(F)F)cc2)ccn1 (racemic) [Compound 1589] | 0% | 0% | 0% | 0% | 0% | 0% | 0% | 0% | 0% | 0% | 0% | 0% | 0% | 0% | 0% | 0% | 0% | 0% | 0% | 0% | pest or weed control at 250 g/ha [7]: 0%; pest or weed control at 15.625 g/ha [8]: 0%; pest or weed control at 62.5 g/ha [8]: 0%; pest or weed control at 250 g/ha [8]: 0%; pest or weed control at 15.625 g/ha [9]: 0%; pest or weed control at 62.5 g/ha [9]: 0%; pest or weed control at 250 g/ha [9]: 0%; pest or weed control at 15.625 g/ha [10]: 0%; pest or weed control at 62.5 g/ha [10]: 0%; pest or weed control at 250 g/ha [10]: 0%; pest or weed control at 15.625 g/ha [11]: 0%; pest or weed control at 62.5 g/ha [11]: 0%; pest or weed control at 250 g/ha [11]: 0%; plant injury at 15.625 g/ha [12]: 0%; plant injury at 62.5 g/ha [12]: 0%; plant injury at 250 g/ha [12]: 0%
2 | CC(C)c1cc([C@H]2CN(C)C(=O)[C@@H]2C(=O)Nc2cccc(F)c2F)cnn1 (racemic) [Compound 1488] | 0% | 0% | 0% | 0% | 20% | 20% | 0% | 0% | 0% | 0% | 0% | 0% | 0% | 0% | 30% | 0% | 10% | 0% | 0% | 0% | pest or weed control at 250 g/ha [7]: 0%; pest or weed control at 15.625 g/ha [8]: 0%; pest or weed control at 62.5 g/ha [8]: 0%; pest or weed control at 250 g/ha [8]: 0%; pest or weed control at 15.625 g/ha [9]: 0%; pest or weed control at 62.5 g/ha [9]: 0%; pest or weed control at 250 g/ha [9]: 0%; pest or weed control at 15.625 g/ha [10]: 0%; pest or weed control at 62.5 g/ha [10]: 0%; pest or weed control at 250 g/ha [10]: 0%; pest or weed control at 15.625 g/ha [11]: 0%; pest or weed control at 62.5 g/ha [11]: 0%; pest or weed control at 250 g/ha [11]: 0%; plant injury at 15.625 g/ha [12]: 0%; plant injury at 62.5 g/ha [12]: 0%; plant injury at 250 g/ha [12]: 0%
